Laboratory results as given in the NIST ThermoML archive (doi:10.1021/je401057z).
± gives the expanded uncertainty stated by the source.

Conditions: Liquid

Compound: Cc1ccccc1C [1,2-dimethylbenzene]
- vapor or sublimation pressure (456.1 K): 250 ± 10 kPa

Compound: CC(C)CC(C)(C)C [2,2,4-trimethylpentane]
- vapor or sublimation pressure (371.55 K): 100.05 ± 3.5 kPa
- vapor or sublimation pressure (373.4 K): 104.94 ± 3.7 kPa
- vapor or sublimation pressure (379.8 K): 124.9 ± 4.3 kPa
- vapor or sublimation pressure (386.94 K): 149.96 ± 5.1 kPa
- vapor or sublimation pressure (393.14 K): 174.7 ± 6 kPa
- vapor or sublimation pressure (398.64 K): 199.94 ± 6.8 kPa
- vapor or sublimation pressure (403.68 K): 224.91 ± 7.6 kPa
- vapor or sublimation pressure (408.28 K): 249.95 ± 8.4 kPa
- vapor or sublimation pressure (408.3 K): 250 ± 8 kPa

Compound: Cc1cccc(C)c1 [1,3-dimethylbenzene]
- vapor or sublimation pressure (450.1 K): 250 ± 10 kPa

Compound: CCc1ccccc1 [ethylbenzene]
- vapor or sublimation pressure (447.2 K): 250 ± 10 kPa

Compound: Cc1ccc(C)cc1 [1,4-dimethylbenzene]
- vapor or sublimation pressure (410.78 K, Ebulliometric method (Recirculating still)): 100.04 ± 3.2 kPa
- vapor or sublimation pressure (412.63 K, Ebulliometric method (Recirculating still)): 105 ± 3.4 kPa
- vapor or sublimation pressure (419.48 K, Ebulliometric method (Recirculating still)): 124.93 ± 4 kPa
- vapor or sublimation pressure (433.57 K, Ebulliometric method (Recirculating still)): 174.88 ± 5.6 kPa
- vapor or sublimation pressure (439.37 K, Ebulliometric method (Recirculating still)): 199.86 ± 6.4 kPa
- vapor or sublimation pressure (444.66 K, Ebulliometric method (Recirculating still)): 224.86 ± 7.2 kPa
- vapor or sublimation pressure (449.56 K, Ebulliometric method (Recirculating still)): 250.04 ± 8 kPa
- vapor or sublimation pressure (449.6 K, Ebulliometric method (Recirculating still)): 250 ± 8 kPa
